Reference: patent US20030040515A1, “Regulation of platelet adhesion and aggregation” (priority 2002, published 2003)

Legend:
purified vWF = purified vWF (Homo sapiens, UniProt P04275); assay: Effect of purified reductants or thiol reagents on the average multimer size of purified vWF (agarose gel electrophoresis); format: biochemical; set-up: Purified vWF from human plasma was obtained from the Baker Medical Research Institute; tissue Baker Medical Research Institute, Melbourne; host or cells: human plasma; settings: incubation of vWF with IAM or NEM alone
[1] = pH 8; cited from earlier work
purified human vWF = target: T1, purified human vWF (Homo sapiens, UniProt P04275+P07996); assay: ELISA of salt-resistant complexes between TSP-1 and vWF; format: binding
T1 construct: Purified vWF from human plasma was obtained from the Baker Medical Research Institute; TSP-1 was purified to homogeneity from pooled outdated human platelet concentrates; tissue Baker Medical Research Institute, Melbourne (vWF); host or cells: human plasma (vWF); human platelet concentrates (TSP-1)
Description: The first step in reduction of a disulfide bond is nucleophilic attack on the substrate disulfide bond by a reductant thiol which results in formation of a disulfide-linked complex between the substrate and the reductant. Release of the reductant from the complex requires nucleophilic attack on the disulfide linkage by another thiol, usually of the reductant. We reasoned that N-ethylmaleimide (NEM, Sigma, St. Louis, Mo.) might trap intermediate covalent complexes of TSP-1 and vWF by blocking the TSP-1 thiol responsible for separating TSP-1 and vWF. Maleimides react rapidly and specifically with cysteine thiols at neutral pH. This prediction was tested by measuring formation of salt-resistant complexes between TSP-1 and vWF and the effect of the thiol-blocking reagent, NEM, on complex formation.
Purified vWF from human plasma was obtained from the Baker Medical Research Institute, Melbourne and was purified according to Booth et at. (1984). The vWF (100 μl of 5 μg per ml in 0.1M NaHCO3, pH 8.3 buffer) was adsorbed to Nunc PolySorp 96 well plates overnight at 4° C. in a humid environment. […] Wells were washed three times with Hepes buffer and the peroxidase detected as described previously (Favaloro et al., 1991). […]

[2] = test system: vWF depolymerizing activity of BAECcm; assay: Inhibitor profile of the vWF depolymerizing activity of BAEC conditioned medium; format: biochemical; settings: measured by agarose gel electrophoresis or collagen binding; BAECcm treated with agent
plasma vWF = target: T2, plasma vWF (Mus musculus, UniProt Q8CIZ8); assay: Reduction in the average multimer size of vWF by TSP-1 in vivo; settings: Balb c mice; 1 mg per kg intraperitoneal; plasma 24 hours later; p<0.05 vs buffer vehicle
T2 construct: from tissue; host or cells: plasma of Balb c mice (in vivo)
Procedure: The ability of TSP-1 to reduce the average multimer size of vWF in vivo was examined by administering TSP-1 to mice via intraperitoneal injection and measuring the consequence for the average multimer size of plasma vWF. Balb c mice (7 to 9 weeks of age) were administered either buffer vehicle (n=4) or 1 mg per kg purified human platelet TSP-1 (n=4) via 0.1 ml intraperitoneal injections. There were 2 male and 2 female mice in each group. Blood was collected by cardiac puncture into EDTA 24 hours later and the plasma was analyzed in triplicate for vWF antigen levels and collagen binding affinity.

vWF = target: T3, vWF (Homo sapiens, UniProt P04275); assay: Reduction in average multimer size of vWF in TTP plasma (agarose gel, collagen binding/vWF antigen); format: biochemical; settings: plasma from a patient with TTP
T3 construct: from tissue; host or cells: plasma of a TTP patient (vWF); human platelet concentrates (TSP-1)
Procedure: TTP plasma was incubated with 20 mM Hepes, 0.14M NaCl, 1 mM CaCl2, 1 mM MgCl2, pH 7.4 buffer, conditioned media of HMEC-1 cells or the Hepes buffer containing TSP-1 for 1 or 24 hours at 37° C. Aliquots of the reactions were diluted 10-fold in the Hepes buffer and assayed for collagen binding affinity and vWF antigen as described by Favaloro et al. (1991). On some occasions, aliquots of the reactions were resolved on 1% agarose gel electrophoresis (Ruggeri and Zimmerman, 1980), transferred to PVDF membrane (DuPont NEN, Boston, Mass.), blotted with 2 μg per ml of horse radish peroxidase conjugated anti-vWF polyclonal antibodies (DAKO Corporation, Carpinteria, Calif.) and visualized using chemiluminescence (DuPont NEN, Boston, Mass.).
TSP-1 is a major component of platelet α-granules which is secreted upon platelet activation and aggregation. TSP-1 was purified to homogeneity from pooled outdated human platelet concentrates (Murphy-Ullrich and Mosher. 1985; Hogg et al., 1997) and tested for vWF reductase activity. Buffers containing 0.1 mM CaCl2 were used throughout the chromatographic purification of TSP1. […] In particular, the very large multimers were lost (see bracket in FIG. 3A). […] TSP-1-mediated reduction in vWF multimer size was concentration- and time-dependent (FIG. 3B). Three different preparations of platelet TSP-1 had the same vWF reducing activity (not shown). It is noteworthy that the molar ratio of TSP-1 to vWF influenced the extent of reduction in vWF multimer size (FIG. 3B). The vWF reductase activity in endothelial cell conditioned medium is inhibited by EDTA. In accordance with this observation, chelation of Ca^2+ with EDTA ablated the vWF reductase activity of TSP-1 (not shown).

T2 sequence (Q8CIZ8 764-2813 limits assumed): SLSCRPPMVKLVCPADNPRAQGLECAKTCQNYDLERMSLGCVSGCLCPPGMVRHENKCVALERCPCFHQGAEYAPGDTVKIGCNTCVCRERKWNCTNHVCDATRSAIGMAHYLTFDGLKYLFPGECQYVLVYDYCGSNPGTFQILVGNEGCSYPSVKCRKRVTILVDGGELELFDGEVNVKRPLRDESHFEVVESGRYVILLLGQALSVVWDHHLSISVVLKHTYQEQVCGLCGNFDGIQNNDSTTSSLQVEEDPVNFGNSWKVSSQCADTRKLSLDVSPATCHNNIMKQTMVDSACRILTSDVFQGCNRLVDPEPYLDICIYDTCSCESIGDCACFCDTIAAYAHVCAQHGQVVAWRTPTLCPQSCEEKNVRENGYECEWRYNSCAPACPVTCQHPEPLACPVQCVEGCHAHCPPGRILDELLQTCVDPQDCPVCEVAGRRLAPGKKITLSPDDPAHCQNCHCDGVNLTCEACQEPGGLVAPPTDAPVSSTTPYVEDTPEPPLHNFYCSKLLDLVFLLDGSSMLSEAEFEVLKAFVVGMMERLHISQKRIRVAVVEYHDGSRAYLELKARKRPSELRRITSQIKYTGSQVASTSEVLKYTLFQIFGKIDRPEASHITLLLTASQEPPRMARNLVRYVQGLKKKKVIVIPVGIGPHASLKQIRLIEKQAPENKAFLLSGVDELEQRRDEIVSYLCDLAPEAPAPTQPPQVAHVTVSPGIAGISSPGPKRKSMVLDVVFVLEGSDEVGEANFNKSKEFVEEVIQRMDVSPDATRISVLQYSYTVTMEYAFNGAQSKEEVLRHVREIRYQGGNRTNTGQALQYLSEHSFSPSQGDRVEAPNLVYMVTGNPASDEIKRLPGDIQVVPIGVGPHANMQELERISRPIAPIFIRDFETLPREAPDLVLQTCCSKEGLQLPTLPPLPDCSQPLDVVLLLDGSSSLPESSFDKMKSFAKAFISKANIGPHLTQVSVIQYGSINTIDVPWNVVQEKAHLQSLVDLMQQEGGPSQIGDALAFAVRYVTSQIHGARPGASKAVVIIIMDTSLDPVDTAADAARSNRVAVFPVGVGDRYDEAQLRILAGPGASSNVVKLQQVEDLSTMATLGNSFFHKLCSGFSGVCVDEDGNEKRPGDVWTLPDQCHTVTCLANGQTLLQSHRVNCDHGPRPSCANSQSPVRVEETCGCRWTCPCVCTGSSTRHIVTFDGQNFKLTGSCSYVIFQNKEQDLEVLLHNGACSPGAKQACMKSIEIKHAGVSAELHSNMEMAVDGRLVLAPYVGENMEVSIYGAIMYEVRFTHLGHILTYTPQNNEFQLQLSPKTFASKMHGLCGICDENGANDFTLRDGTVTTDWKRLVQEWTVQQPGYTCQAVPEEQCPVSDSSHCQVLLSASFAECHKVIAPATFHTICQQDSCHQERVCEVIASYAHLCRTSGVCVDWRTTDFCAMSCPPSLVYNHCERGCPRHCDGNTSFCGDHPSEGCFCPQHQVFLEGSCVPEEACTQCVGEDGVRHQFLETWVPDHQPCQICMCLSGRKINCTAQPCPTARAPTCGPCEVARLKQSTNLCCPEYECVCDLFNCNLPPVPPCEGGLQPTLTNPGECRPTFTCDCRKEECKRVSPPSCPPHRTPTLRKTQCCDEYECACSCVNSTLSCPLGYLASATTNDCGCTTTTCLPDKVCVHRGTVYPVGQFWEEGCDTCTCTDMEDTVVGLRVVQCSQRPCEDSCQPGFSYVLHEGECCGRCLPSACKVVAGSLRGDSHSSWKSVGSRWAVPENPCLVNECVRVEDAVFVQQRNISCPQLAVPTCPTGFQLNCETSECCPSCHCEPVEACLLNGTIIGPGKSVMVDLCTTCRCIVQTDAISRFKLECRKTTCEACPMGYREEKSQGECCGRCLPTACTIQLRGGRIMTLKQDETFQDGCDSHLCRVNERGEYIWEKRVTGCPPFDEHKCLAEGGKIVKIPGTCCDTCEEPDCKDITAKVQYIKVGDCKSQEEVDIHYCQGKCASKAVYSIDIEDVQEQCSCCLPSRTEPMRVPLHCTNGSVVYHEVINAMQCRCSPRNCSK

CBA/vWFAg (average multimer size of plasma vWF) (plasma vWF)	effect on average multimer size of vWF (vWF; 37° C., agarose gel electrophoresis)	effect on affinity of vWF for collagen (vWF; collagen binding relative to vWF antigen)	binding of TSP-1 to wells not coated with vWF (purified human vWF; 10 μg per ml TSP-1, wells blocked with BSA)	Molecule	effect on average multimer size of vWF (purified vWF)	second order rate constant of reaction with free thiols [1]	fold more TSP-1 bound to vWF in the presence of NEM (purified human vWF; 5 or 20 mM NEM, TSP-1 0 to 10 μg per ml, 30 minutes at room temperature, 1M NaCl wash)	effect on vWF depolymerizing activity of BAECcm [2]
–	–	–	–	CCN1C(=O)C=CC1=O [NEM, N-ethylmaleimide]	did not have any discernible effect	~10^4 M^−1s^−1	Up to 8 fold	inactivated
0.83±0.05	reduced the average multimer size of vWF	decrease in affinity of vWF for collagen	no binding	thrombospondin-1 [TSP-1]	–	–	–	–
